Measurements: patent US5112864A, “PLA2 inhibitors as antiinflammatories” (G. D. Searle & Co., priority 1991, dated 1992)

Biological target: T1, Human synovial fluid phospholipase A2 (HSF-PLA2) (Homo sapiens, UniProt P14555)
T1 construct: Human synovial fluid phospholipase A2 was purified approximately 5000 fold; from tissue; host or cells: human synovial fluid
T1 sequence (P14555 21-144): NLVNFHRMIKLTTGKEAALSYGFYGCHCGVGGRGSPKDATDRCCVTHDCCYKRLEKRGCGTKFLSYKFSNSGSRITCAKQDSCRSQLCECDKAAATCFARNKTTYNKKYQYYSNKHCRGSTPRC
Test: Human synovial fluid phospholipase A2 (HSF-PLA2) assay, [14C]-oleate-labeled autoclaved E. coli substrate
Format: biochemical
Details: purified HSF-PLA2; pH 7.0, 5 mM CaCl2; 5 min pre-incubation; 37° C., 30 minutes; mean
Method: Human synovial fluid phospholipase A2 was purified approximately 5000 fold following the procedures of Franson et al., Lung 160, 275-284 (1982) and Vishwanath et al., Inflammation 12(6), 549-56 (1988). Following purification the enzyme activity was measured by a modified methodology using [^14 C]-oleate-labeled, autoclaved E. coli as the substrate as also shown in the above noted references. The assay was performed in a final volume of 100 μl containing 50 mM HEPES (pH 7.0), 150 mM NaCl, 5mM CaCl2, 7 n mole [^14 C]-oleate-labeled E. coli phospholipid and with or without the compound from one of the examples herein undergoing an assay. The compound or control vehicle was pre-incubated with the PLA2 for 5 minutes followed by addition of the E. coli substrate to initiate the reaction. The reaction was maintained at 37° C. for 30 minutes and then terminated by the addition of 2 ml tetrahydrofuran (THF). The reaction product, [^14 C]-oleic acid, was extracted using a 1 ml Bond Elut-NH2 Solid phase extraction column. The IC50 value for the compound (mean -S.E.) is given in the following Table I and represents the concentration of the indicated compound required to inhibit 50% of the PLA2 activity.

Row | Structure (SMILES) | IC50
1 | CCCCCCCCCCCCCC#CC(=O)Cc1cccc(C(=O)OC)c1 [Example 5, methyl 3-(2-oxo-3-heptadecynyl) benzoate] | 6 µM
2 | COC(=O)c1cccc(CC(=O)C#CCCCCCCCCCOc2ccccc2)c1 [Example 7, methyl 3-(2-oxo-13-phenoxy-3-tridecynyl)benzoate] | 2.75 µM
3 | COCCCCCCCCCC#CC(=O)Cc1cccc(C(=O)OC)c1 [Example 9, methyl 3-(2-oxo-13-methoxy-3-tridecynyl)benzoate] | 20.6 µM
4 | CCCCCCCCCCCCCC#CC(=O)Cc1ccccc1C(=O)OC [Example 11, methyl 2-(2-oxo-3heptadecynyl)benzoate] | 17.4 µM
5 | CCCCCCCCCCCCCC#CC(=O)Cc1ccc(C(=O)OC)cc1 [Example 14, methyl 4-(2-oxo-3heptadecynyl)benzoate] | 2.2 µM
